Assay results published in patent US20250235399A1, “METHODS OF PREPARING CARRIER-BASED DRY POWDERS FOR INHALATION” (Board of Regents, The University of Texas System, priority 2022, published 2025).

Columns and labels:
[1] = Geometric particle size of rifampicin blends and starting materials (HELOS laser diffraction, RODOS); assay type: physicochemical; details: Table 3; for X10 / X50 / X90: particle size distribution
Description: The geometric particle size of the powder blends was measured using laser diffraction (HELOS, Sympatec, Germany) for the pre-blend and after each blending cycle. Measurements were done using a RODOS powder disperser at a pressure drop of 1 bar and rotor speed set at 50% (FIG. 6). […] The particles diameter is expressed as the mean Xn diameter values, where n % of the particles have a diameter≤X. Jaffari, S., et al. Rapid Characterisation of the Inherent Dispersibility of Respirable Powders Using Dry Dispersion Laser Diffraction. Int. J. Pharm. […] A measure of particle size distribution breadth is represented by the calculated factor “Span”. This was calculated using the following expression: (X90−X10)/X50.
Particle size analysis was conducted on blended materials and compared to pre-blend and lactose/magnesium stearate controls.

[2] = Particle size of budesonide blend starting materials (HELOS/RODOS laser diffraction); assay type: physicochemical; details: RODOS laser diffraction, 3 bar, 50% rotation
Description: Particle size distribution of alpha-lactose monohydrate, magnesium stearate and budesonide were analyzed using a laser diffractometer (Sympatec, Clausthal-Zellerfeld, Germany). […] About 0.5 g of each component was carefully loaded on the turntable of the vibratory feeding module. Samples were dispersed at 3 bar and 50% rotation (FIG. 11). Data was acquired using Windox software (Sympatec, Clausthal-Zellerfeld, Germany) and volume-based size distribution was calculated using Fraunhofer theory.
Table 6 lists the particle size distribution for starting materials as determined by laser diffraction. Budesonide was confirmed to be sufficiently micronized (e.g. less than 5 μm). Magnesium stearate and lactose size distributions were within the size ranges provided by manufacturers.

## Magnesium stearate
[1]
  Span ((X90-X10)/X50): 1.87
  X10: 2.08 μm
  X50: 8.14 μm
  X90: 17.34 μm
[2]
  D10: 1.29 μm
  D50: 4.45 μm
  D90: 9.93 μm

## O.OC[C@H]1O[C@@H](O[C@H]2[C@H](O)[C@@H](O)[C@@H](O)O[C@@H]2CO)[C@H](O)[C@@H](O)[C@H]1O [Lactohale 206]
[1]
  X10: 1.91 μm
  X50: 4.15 μm
  X90: 116.14 μm

## O.OC[C@H]1O[C@@H](O[C@H]2[C@H](O)[C@@H](O)[C@@H](O)O[C@@H]2CO)[C@H](O)[C@@H](O)[C@H]1O [Lactose, Alpha-lactose monohydrate]
[2]
  D10: 32.09 μm
  D50: 80.34 μm
  D90: 111.84 μm
